This passage reports TGI and GI50 results from PubChem BioAssay (NCI).

Some test systems named below: COLO 205 colon; M14 melanoma; NCI-H23 lung; NCI-H522 lung; SK-MEL-2 melanoma; OVCAR-3 ovarian; OVCAR-8 ovarian; SN12C renal.
Experiment in all cases: NCI tumour cell line growth inhibition, 48 h

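Following 48 hours of exposure in 96-well plates, responses at five concentrations were used to interpolate endpoints linearly. Abbreviation: GI50, concentration required for 50% inhibition of growth. TGI is the concentration that stops growth completely.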

As for `c1ccc(COc2cccc3ccc[n+](Cc4ccccc4)c23)cc1`, the TGI in the assay with COLO 205 colon amounted to 23.9 µM; in the assay with M14 melanoma it was 60.2 µM; with NCI-H23 lung, 23.9 µM; in the assay on NCI-H522 lung it was 8.02 µM; in the assay with SK-MEL-2 melanoma it was 20.3 µM.

In the case of `[Cl-].[La+3].[O-]/N=C(\c1ccccc1)c1ccccn1.[O-]/N=C(\c1ccccc1)c1ccccn1.[O-]/N=C(\c1ccccc1)c1ccccn1`, the GI50 was 46.8 µM with COLO 205 colon; 20.2 µM with M14 melanoma; 57.1 µM with NCI-H23 lung; 44.5 µM in the assay on NCI-H522 lung; 39.2 µM in the assay with OVCAR-3 ovarian; 46 µM in the assay with OVCAR-8 ovarian. Also, the values for the GI50 with SK-MEL-2 melanoma and in the assay on SN12C renal were 37.1 µM and 23.5 µM, respectively. The TGI with COLO 205 colon is over 100 µM; in the assay on M14 melanoma, 41.4 µM; in the assay on NCI-H23 lung it was over 100 µM; in the assay on NCI-H522 lung it was over 100 µM; in the assay on OVCAR-3 ovarian it was over 100 µM; with OVCAR-8 ovarian, over 100 µM. Also, the TGI with SK-MEL-2 melanoma and in the assay on SN12C renal was over 100 µM throughout.

As to `Cn1c2ccccc2c2cc(-c3ccccc3)c3c(c21)C(=O)c1ccccc1C3=O`, the TGI came to 94.3 µM in the assay with COLO 205 colon; 33.4 µM in the assay on M14 melanoma; 22.8 µM with NCI-H23 lung; 48.4 µM in the assay with NCI-H522 lung; 36.4 µM in the assay with OVCAR-3 ovarian; 68.1 µM in the assay with OVCAR-8 ovarian. In addition, the TGI with SK-MEL-2 melanoma is 43.4 µM; in the assay with SN12C renal, over 100 µM.

With `CC(C)OP(=O)(OC(C)C)C(=NCCN=C(NNc1ccc([N+](=O)[O-])cc1)P(=O)(OC(C)C)OC(C)C)NNc1ccc([N+](=O)[O-])cc1`, the TGI in the assay on COLO 205 colon was 29.6 µM; with M14 melanoma, over 100 µM; with NCI-H23 lung, 5.23 µM; in the assay with OVCAR-3 ovarian, 33.4 µM; in the assay on OVCAR-8 ovarian, over 100 µM; in the assay with SK-MEL-2 melanoma it was 53 µM. The compound further displayed a TGI in the assay on SN12C renal of over 100 µM.

Regarding `Cc1ccc(NC(=O)c2cc3cc(N=Nc4ccccc4C(=O)O)ccc3oc2=O)cc1`, the TGI in the assay on COLO 205 colon is over 100 µM; in the assay with M14 melanoma, over 100 µM; with NCI-H23 lung it was over 100 µM; with NCI-H522 lung, over 100 µM; in the assay on OVCAR-3 ovarian, 74.2 µM; in the assay on OVCAR-8 ovarian, over 100 µM. The compound also came in with a TGI in the assay on SN12C renal of over 100 µM.

Turning to `CC(=O)OC1COC(n2ccc3cc(Br)c([N+](=O)[O-])cc32)C(OC(C)=O)C1OC(C)=O` (stereo unspecified), the TGI was 50 µM in the assay on COLO 205 colon; over 100 µM in the assay with M14 melanoma; 61.3 µM in the assay on NCI-H23 lung; 65.6 µM with OVCAR-3 ovarian; 82.1 µM in the assay on OVCAR-8 ovarian; over 100 µM with SN12C renal.

Regarding `CC(=O)/C(=C\c1cccc([N+](=O)[O-])c1)C(=O)Nc1ccccc1C`, the TGI with M14 melanoma, in the assay with NCI-H23 lung, in the assay with NCI-H522 lung, with OVCAR-3 ovarian, in the assay on SK-MEL-2 melanoma and with SN12C renal was over 100 µM in each case.

Regarding `COC(OC)C(C)CC(=O)N(C)C` (stereo unspecified), the TGI with COLO 205 colon, in the assay with M14 melanoma, with OVCAR-3 ovarian, in the assay with OVCAR-8 ovarian, in the assay with SK-MEL-2 melanoma and in the assay on SN12C renal was over 100 µM each time.

With `C#CC1(O)CCC2C3CCc4cc(Oc5nc(F)nc(-c6c7ccccc7c7sc8ccccc8n67)n5)ccc4C3CC[C@@]21C` (stereo partly specified), the TGI is over 100 µM in the assay on COLO 205 colon; 98.3 µM in the assay with M14 melanoma; over 100 µM with NCI-H23 lung; 43.7 µM in the assay on NCI-H522 lung; over 100 µM in the assay on OVCAR-3 ovarian; over 100 µM in the assay on OVCAR-8 ovarian. The same compound came in with a TGI in the assay with SK-MEL-2 melanoma of over 100 µM.

`CCN1c2ccccc2C(C(SC)S(=O)(=O)c2ccc(C)cc2)c2c1[nH]c(=O)n(C)c2=O` (stereo unspecified): the TGI in the assay on COLO 205 colon, with NCI-H23 lung, in the assay with NCI-H522 lung, in the assay with OVCAR-3 ovarian, with OVCAR-8 ovarian and in the assay on SK-MEL-2 melanoma was over 100 µM each time. Moreover, the TGI in the assay on SN12C renal is over 100 µM.

`CCOC(=O)NC(=O)c1cn(CCCO)c(=O)[nH]c1=O`: the TGI with COLO 205 colon, in the assay on M14 melanoma, in the assay with NCI-H23 lung, in the assay on OVCAR-3 ovarian, in the assay on OVCAR-8 ovarian and in the assay with SK-MEL-2 melanoma was over 100 µM each time. The same compound registered a TGI in the assay on SN12C renal of over 100 µM.

Consider `Clc1ccc(C(c2ccc(Cl)cc2)c2ccccn2)cc1`, for which the TGI was 38 µM in the assay on M14 melanoma; over 100 µM with NCI-H23 lung; 48.6 µM in the assay on NCI-H522 lung; 33.8 µM in the assay with OVCAR-8 ovarian; 35 µM in the assay with SK-MEL-2 melanoma; 31.7 µM in the assay on SN12C renal.

In the case of `O=C(/C=C\c1ccc(Cl)c(Cl)c1)c1ccc(Cl)cc1Cl`, the TGI was determined as 52.4 µM with M14 melanoma; 14.1 µM with NCI-H23 lung; 32.6 µM with NCI-H522 lung; 35.7 µM in the assay with OVCAR-3 ovarian; 38 µM in the assay with OVCAR-8 ovarian; 41.9 µM in the assay on SK-MEL-2 melanoma. Moreover, the TGI in the assay on SN12C renal was over 100 µM.

On to `CC(C)=Cc1cc(C(=O)Nc2ccc(Cl)c(Cl)c2)nc(N)n1`, for which the TGI with M14 melanoma, with NCI-H23 lung, in the assay on OVCAR-3 ovarian, in the assay on OVCAR-8 ovarian, in the assay with SK-MEL-2 melanoma and in the assay on SN12C renal was over 100 µM each time.
